Laboratory results from publication PMC7178174, “Residues in Transmembrane Segments of the P2X4 Receptor Contribute to Channel Function and Ethanol Sensitivity” (International Journal of Molecular Sciences, 2020).
Changes are numbered by the printed parent chain.

Columns and labels:
Type in all cases: cell-based
[1] = molecular target: T1, rat P2X4R (P2X4 receptor) (Rattus norvegicus, UniProt P51577, R33L); assay: two-electrode voltage clamp, Xenopus oocytes, ATP-gated current
T1 construct: gene P2rx4; full-length cDNA in pcDNA3, cRNA expressed in Xenopus laevis oocytes; homomeric trimer; ~60 kDa band
T1 sequence (P51577 1-388 R33L): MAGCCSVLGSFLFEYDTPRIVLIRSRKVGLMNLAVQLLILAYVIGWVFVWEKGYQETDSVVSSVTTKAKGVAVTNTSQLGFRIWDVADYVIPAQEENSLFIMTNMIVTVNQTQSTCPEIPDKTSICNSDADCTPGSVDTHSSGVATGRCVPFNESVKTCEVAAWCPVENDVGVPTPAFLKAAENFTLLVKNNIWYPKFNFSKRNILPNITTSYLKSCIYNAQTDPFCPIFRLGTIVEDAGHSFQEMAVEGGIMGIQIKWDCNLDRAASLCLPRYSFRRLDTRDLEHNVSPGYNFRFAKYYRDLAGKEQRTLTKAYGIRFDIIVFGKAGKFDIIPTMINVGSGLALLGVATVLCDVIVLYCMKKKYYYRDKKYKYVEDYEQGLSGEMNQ
Text: (§1) two-electrode voltage clamp, Xenopus oocytes, ATP-gated current on rat P2X4R (P2X4 receptor)

[2] = molecular target: T2, rat P2X4R (P2X4 receptor) (Rattus norvegicus, UniProt P51577, F48A); assay: as above
T2 construct: gene P2rx4; full-length cDNA in pcDNA3, cRNA expressed in Xenopus laevis oocytes; homomeric trimer; ~60 kDa band
T2 sequence (P51577 1-388 F48A): T1 sequence (P51577 1-388 R33L) with L33R, F48A
Text: as §1

[3] = molecular target: T3, rat P2X4R (P2X4 receptor) (Rattus norvegicus, UniProt P51577, R33A); assay: as above
T3 construct: gene P2rx4; full-length cDNA in pcDNA3, cRNA expressed in Xenopus laevis oocytes; homomeric trimer; ~60 kDa band
T3 sequence (P51577 1-388 R33A): T1 sequence (P51577 1-388 R33L) with L33A
Text: as §1

[4] = molecular target: T4, rat P2X4R (P2X4 receptor) (Rattus norvegicus, UniProt P51577); assay: as above
T4 construct: gene P2rx4; full-length cDNA in pcDNA3, cRNA expressed in Xenopus laevis oocytes; homomeric trimer; ~60 kDa band
T4 sequence (P51577 1-388): T1 sequence (P51577 1-388 R33L) with L33R
Text: as §1

[5] = molecular target: T5, rat P2X4R (P2X4 receptor) (Rattus norvegicus, UniProt P51577, W46A); assay: as above
T5 construct: gene P2rx4; full-length cDNA in pcDNA3, cRNA expressed in Xenopus laevis oocytes; homomeric trimer; ~60 kDa band
T5 sequence (P51577 1-388 W46A): T1 sequence (P51577 1-388 R33L) with L33R, W46A
Text: as §1

[6] = molecular target: T6, rat P2X4R (P2X4 receptor) (Rattus norvegicus, UniProt P51577, A34W); assay: as above
T6 construct: gene P2rx4; full-length cDNA in pcDNA3, cRNA expressed in Xenopus laevis oocytes; homomeric trimer; ~60 kDa band
T6 sequence (P51577 1-388 A34W): T1 sequence (P51577 1-388 R33L) with L33R, A34W
Text: as §1

[7] = molecular target: T7, rat P2X4R (P2X4 receptor) (Rattus norvegicus, UniProt P51577, L37A); assay: as above
T7 construct: gene P2rx4; full-length cDNA in pcDNA3, cRNA expressed in Xenopus laevis oocytes; homomeric trimer; ~60 kDa band
T7 sequence (P51577 1-388 L37A): T1 sequence (P51577 1-388 R33L) with L33R, L37A
Text: as §1

[8] = molecular target: T8, rat P2X4R (P2X4 receptor) (Rattus norvegicus, UniProt P51577, V49L); assay: as above
T8 construct: gene P2rx4; full-length cDNA in pcDNA3, cRNA expressed in Xenopus laevis oocytes; homomeric trimer; ~60 kDa band
T8 sequence (P51577 1-388 V49L): T1 sequence (P51577 1-388 R33L) with L33R, V49L
Text: as §1

[9] = molecular target: T9, rat P2X4R (P2X4 receptor) (Rattus norvegicus, UniProt P51577, R33K); assay: as above
T9 construct: gene P2rx4; full-length cDNA in pcDNA3, cRNA expressed in Xenopus laevis oocytes; homomeric trimer; ~60 kDa band
T9 sequence (P51577 1-388 R33K): T1 sequence (P51577 1-388 R33L) with L33K
Text: as §1

[10] = molecular target: T10, rat P2X4R (P2X4 receptor) (Rattus norvegicus, UniProt P51577, V49G); assay: as above
T10 construct: gene P2rx4; full-length cDNA in pcDNA3, cRNA expressed in Xenopus laevis oocytes; homomeric trimer; ~60 kDa band
T10 sequence (P51577 1-388 V49G): T1 sequence (P51577 1-388 R33L) with L33R, V49G
Text: as §1

[11] = molecular target: T11, rat P2X4R (P2X4 receptor) (Rattus norvegicus, UniProt P51577, R33S); assay: as above
T11 construct: gene P2rx4; full-length cDNA in pcDNA3, cRNA expressed in Xenopus laevis oocytes; homomeric trimer; ~60 kDa band
T11 sequence (P51577 1-388 R33S): T1 sequence (P51577 1-388 R33L) with L33S
Text: as §1

[12] = molecular target: T4, rat P2X4R (P2X4 receptor); assay: two-electrode voltage clamp, Xenopus oocytes, inhibition of ATP-gated current; settings: read-out: % inhibition at 100 mM

Row | Compound | EC50 [1] [µM] | EC50 [2] [µM] | EC50 [3] [µM] | EC50 [4] [µM] | EC50 [5] [µM] | EC50 [6] [µM] | EC50 [7] [µM] | EC50 [8] [µM] | EC50 [9] [µM] | EC50 [10] [µM] | EC50 [11] [µM] | inhibition at 100000 µM [12] [%]
1 | Nc1ncnc2c1ncn2[C@@H]1O[C@H](COP(=O)(O)OP(=O)(O)OP(=O)(O)O)[C@@H](O)[C@H]1O [ATP] | 5.06 ± 0.7 | 3.53 ± 0.73 | 7.04 ± 0.51 | 5.74 ± 0.45 | 3.58 ± 0.57 | 6.5 ± 1.02 | 8.91 ± 0.84 | 10.6 ± 1.3 | 6.33 ± 0.93 | 9.6 ± 0.9 | 4.94 ± 1.09 | –
2 | CCO [ethanol] | – | – | – | – | – | – | – | – | – | – | – | 44 ± 4
